Patent US11090247B2, “Compositions for protecting the skin from heavy metals and formaldehyde” (FNG RESEARCH CO., LTD., priority 2016, dated 2021)

Tests used:
[1] = Removal test of heavy metals of active ingredients (pig skin, ICP-MS): Pb; details: contaminated pig skin
Protocol: (§1) (1) Preparation of Heavy Metal Contamination Sources and Pig Skin Samples
(§2) A pig was slaughtered, flayed and the bristle was shaved. The pig skin was cut to prepare 5*5 cm size of skin samples respectively.
(§3) The said skin samples were cleanly wiped with wet gauze, and then, added to 50 ml of methanol and extracted by shaking with ultrasonic for 60 min. 50 ml of methanol was further added and mixed. The pig skin samples were removed from the extracted solutions to prepare the test solutions.
(§4) The test solutions were analyzed for heavy metal components using an inductively coupled plasma mass spectrometer (ICP-MS, Xseries™ 2, Thermo Fisher Scientific, UK).

[2] = Removal test of heavy metals of active ingredients (pig skin, ICP-MS): Cd; details: contaminated pig skin
Protocol: as §1, §2, §3, §4

[3] = Removal test of heavy metals of active ingredients (pig skin, ICP-MS): Cu; details: contaminated pig skin
Protocol: as §1, §2, §3, §4

human skin = assay: Skin irritation test of active ingredient (patch method, CTFA guidelines); type: in vivo; set-up: key to Degree of irritation: 0–0.1 none, 0.11–0.3 weak, 0.31–0.5 moderate, ≥0.51 strong irritation; details: 20 people, patch 24 hours; for Test result(number of subject) (+): (+): Apparent reddening than periphery; for Test result(number of subject) (++): (++): More reddened and swollen than periphery; for Test result(number of subject) (±): (±): slightly reddish than the periphery; for Test result(number of subject) (−): (−): No erythema or particularly no symptoms
Protocol: A total of 20 people (10 men and 10 women in their 20 s and 30 s) were tested for skin irritation using the patch method according to the guidelines of CTFA (The Cosmetic, Toiletry & Fragrance Association, Inc. Washington, D.C.).
A filter paper disk was placed in an 8 mm diameter, 10 panels of pin chamber.
After 24 hours, the pin chamber was removed, and skin conditions were visually observed.
[Criteria for Skin Irritation]
(−): No erythema or particularly no symptoms; (±): slightly reddish than the periphery; (+): Apparent reddening than periphery; (++): More reddened and swollen than periphery.
[Grade for Skin Irritation]
Degree of irritation 0-0.1: Grade I (unstimulated);
Degree of irritation 0.11-0.3: Grade II (weakly stimulated);
Degree of irritation 0.31-0.5: Grade III (moderately stimulated);
Degree of irritation 0.51 or more: Grade IV (strongly stimulated)

[4] = Formaldehyde removing ability test (GC); details: 2.0% formaldehyde solution; for Area (mAU*min) 30 min: formaldehyde GC area after 30 min; for Area (mAU*min) 30 min / Area (mAU*min) 180 min: 3 molar equivalents, room temperature; for Area (mAU*min) 180 min: formaldehyde GC area after 180 min; for Area (mAU*min) Initial: formaldehyde GC area, initial state, 3 molar equivalents of compound

| Compound | Removal of Heavy metals Pb (%) ([1]; 0.1 wt % aqueous solution) | Removal of Heavy metals Pb (%) ([1]; 0.5 wt % aqueous solution) | Removal of Heavy metals Pb (%) ([1]; 1.0 wt % aqueous solution) | Removal of Heavy metals Cd (%) ([2]; 0.1 wt % aqueous solution) | Removal of Heavy metals Cd (%) ([2]; 0.5 wt % aqueous solution) | Removal of Heavy metals Cd (%) ([2]; 1.0 wt % aqueous solution) | Removal of Heavy metals Cu (%) ([3]; 0.1 wt % aqueous solution) | Removal of Heavy metals Cu (%) ([3]; 0.5 wt % aqueous solution) | Removal of Heavy metals Cu (%) ([3]; 1.0 wt % aqueous solution) | Degree of irritation (human skin; 0.1 wt %) | Grade (human skin; 0.1 wt %) | Test result(number of subject) (+) (human skin; 0.1 wt %) | Test result(number of subject) (++) (human skin; 0.1 wt %) | Test result(number of subject) (±) (human skin; 0.1 wt %) | Test result(number of subject) (−) (human skin; 0.1 wt %) | Degree of irritation (human skin; 0.5 wt %) | Grade (human skin; 0.5 wt %) | Test result(number of subject) (+) (human skin; 0.5 wt %) | Test result(number of subject) (++) (human skin; 0.5 wt %) | Test result(number of subject) (±) (human skin; 0.5 wt %) | other results |
| --- | --- | --- | --- | --- | --- | --- | --- | --- | --- | --- | --- | --- | --- | --- | --- | --- | --- | --- | --- | --- | --- |
| O=C(O)c1ccc(N2CCN(c3ccc(C(=O)O)o3)CCN(c3ccc(C(=O)O)o3)CCN(c3ccc(C(=O)O)o3)CC2)o1 [Embodiment 8, 5,5′,5″,5′″-(1,4,7,10-tetraazacyclododecane-1,4,7,10-tetrayl)tetrakis(furan-2-carboxylic acid)] | 91.4% | 93.4% | 94.0% | 90.4% | 91.3% | 93.4% | 94.3% | 96.8% | 97.2% | 0 | I (Degree of irritation 0-0.1: Grade I (unstimulated)) | 0 | 0 | 0 | 20 | 0 | I (Degree of irritation 0-0.1: Grade I (unstimulated)) | 0 | 0 | 0 | Test result(number of subject) (−) (human skin; 0.5 wt %): 20; Degree of irritation (human skin; 1.0 wt %): 0.10; Grade (human skin; 1.0 wt %): I (Degree of irritation 0-0.1: Grade I (unstimulated)); Test result(number of subject) (+) (human skin; 1.0 wt %): 0; Test result(number of subject) (++) (human skin; 1.0 wt %): 0; Test result(number of subject) (±) (human skin; 1.0 wt %): 2; Test result(number of subject) (−) (human skin; 1.0 wt %): 18; Area (mAU*min) 30 min [4]: 0.168 mAU*min; Area (mAU*min) 180 min [4]: 0 mAU*min; Area (mAU*min) Initial [4]: 0.305 mAU*min |
| O=C(O)CN1CCCN(CC(=O)O)CCN(CC(=O)O)CCCN(CC(=O)O)CC1 [Embodiment 9, 2,2′,2″,2′″-(1,4,8,11-tetraazacyclotetradecane-1,4,8,11-tetrayl)tetraacetic acid] | 88.9% | 91.0% | 91.4% | 89.1% | 91.3% | 91.9% | 94.3% | 96.9% | 97.3% | 0 | I (Degree of irritation 0-0.1: Grade I (unstimulated)) | 0 | 0 | 0 | 20 | 0 | I (Degree of irritation 0-0.1: Grade I (unstimulated)) | 0 | 0 | 0 | Test result(number of subject) (−) (human skin; 0.5 wt %): 20; Degree of irritation (human skin; 1.0 wt %): 0.10; Grade (human skin; 1.0 wt %): I (Degree of irritation 0-0.1: Grade I (unstimulated)); Test result(number of subject) (+) (human skin; 1.0 wt %): 0; Test result(number of subject) (++) (human skin; 1.0 wt %): 0; Test result(number of subject) (±) (human skin; 1.0 wt %): 2; Test result(number of subject) (−) (human skin; 1.0 wt %): 18; Area (mAU*min) 30 min [4]: 0.182 mAU*min; Area (mAU*min) 180 min [4]: 0 mAU*min; Area (mAU*min) Initial [4]: 0.305 mAU*min |
| O=C(O)c1ccc(N2CCCN(c3ccc(C(=O)O)cc3)CCN(c3ccc(C(=O)O)cc3)CCCN(c3ccc(C(=O)O)cc3)CC2)cc1 [Embodiment 10, 4,4′,4″,4′″-(1,4,8,11-tetraazacyclotetradecane-1,4,8,11-tetrayl)tetrabenzoic acid] | 88.3% | 90.5% | 90.9% | 85.7% | 90.4% | 91.1% | 94.1% | 96.0% | 96.5% | 0 | I (Degree of irritation 0-0.1: Grade I (unstimulated)) | 0 | 0 | 0 | 20 | 0 | I (Degree of irritation 0-0.1: Grade I (unstimulated)) | 0 | 0 | 0 | Test result(number of subject) (−) (human skin; 0.5 wt %): 20; Degree of irritation (human skin; 1.0 wt %): 0.05; Grade (human skin; 1.0 wt %): I (Degree of irritation 0-0.1: Grade I (unstimulated)); Test result(number of subject) (+) (human skin; 1.0 wt %): 0; Test result(number of subject) (++) (human skin; 1.0 wt %): 0; Test result(number of subject) (±) (human skin; 1.0 wt %): 1; Test result(number of subject) (−) (human skin; 1.0 wt %): 19; Area (mAU*min) 30 min [4]: 0.171 mAU*min; Area (mAU*min) 180 min [4]: 0 mAU*min; Area (mAU*min) Initial [4]: 0.305 mAU*min |
| O=C(O)c1cncc(N2CCCN(c3cncc(C(=O)O)c3)CCN(c3cncc(C(=O)O)c3)CCCN(c3cncc(C(=O)O)c3)CC2)c1 [Embodiment 11, 5,5′,5″,5′″-(1,4,8,11-tetraazacyclotetradecane-1,4,8,11-tetrayl)tetranicotinic acid] | 87.9% | 89.2% | 91.2% | 86.7% | 88.9% | 91.0% | 93.8% | 96.0% | 96.8% | 0 | I (Degree of irritation 0-0.1: Grade I (unstimulated)) | 0 | 0 | 0 | 20 | 0 | I (Degree of irritation 0-0.1: Grade I (unstimulated)) | 0 | 0 | 0 | Test result(number of subject) (−) (human skin; 0.5 wt %): 20; Degree of irritation (human skin; 1.0 wt %): 0.10; Grade (human skin; 1.0 wt %): I (Degree of irritation 0-0.1: Grade I (unstimulated)); Test result(number of subject) (+) (human skin; 1.0 wt %): 0; Test result(number of subject) (++) (human skin; 1.0 wt %): 0; Test result(number of subject) (±) (human skin; 1.0 wt %): 2; Test result(number of subject) (−) (human skin; 1.0 wt %): 18; Area (mAU*min) 30 min [4]: 0.174 mAU*min; Area (mAU*min) 180 min [4]: 0 mAU*min; Area (mAU*min) Initial [4]: 0.305 mAU*min |
